Reference: PMC9518288, “The mechanism and pharmacodynamics of 2-((1H-indol-3-yl)thio/sulfinyl)-N-pheny acetamide derivative as a novel inhibitor against human respiratory syncytial virus” (Journal of Enzyme Inhibition and Medicinal Chemistry, 2022)

Tests used:
wtRSV in HEp-2 cells = test: Time-of-addition assay (RT-qPCR); type: cell-based, Human respiratory syncytial virus; details: wtRSV MOI 5, HEp-2, added at −1 to 14 h, RT-qPCR at 24 h post infection
Protocol: The time-of-addition assay was performed as follows according to our previous work and literature[25]^,[27]. HEp-2 cells were plated in 96 well plates at 1.5 × 10^4 cells per well in 100 µL culture medium and incubated for 24 h (37 °C, 5% CO2). Then, HEp-2 cells were infected with wtRSV at a multiplication of infection (MOI) of 5 for 2 h (37 °C, 5% CO2). The cells were washed with PBS and the media containing drugs and compounds of 4–49 C, 1-HB-63, RSV-604, GS-5806 and Ribavirin at 1 mM, 200 μM, 10 μM, 1 mM and 100 μM, respectively, were added at −1, 0, 2, 4, 6, 8, 10, 12 and 14 h post infection. After the treated cells were further cultured and collected at 24 h post infection, the total RNA was isolated from the HEp-2 cells using TRIzol reagent (Thermo Fisher Scientific, Waltham, MA, USA) and reverse transcribed with GoScript Reverse Transcriptase kit (Promega, Madison, WI, USA). Then, RT-qPCR was performed as described previously.
Figure 2. Investigation on the underlying mechanism 4–49 C and 1-HB-63 inhibiting wtRSV replication. (A) Time-of-addition analyses of 4-49C and 1-HB-63 replication. The HEp-2 cells were infected with wtRSV at a multiplication of infection (MOI) of 5 for 2 h (37 °C, 5% CO2). The cells were washed with PBS and the media containing drug (4-49C, 1-HB-63, RSV-604, GS-5806 and Ribavirin at 1 mM, 200 μM, 10 μM, 1 mM and 100 μM, respectively.) were added at −1, 0, 2, 4, 6, 8, 10, 12 and 14 h separately and incubated till 24 h post infection. Then, the cells were harvested and lysed for RNA extraction and RT-qPCR assay. The results were a representative of three independent experiments, and shown as means ± standard and expressed as % negative control, although in many cases the bars for the standard deviation were obscured by the symbols given the small margin of values. (B) RSV adsorption analyses. […] After 24 h, we cotransfected RSV minigenome plasmid of pBR322B-RSV-Gluc with four auxiliary plasmids into BHK/T7 cells and detected the expression of Gluc in the supernatant. […]

[1] = test system: RSV adsorption to HEp-2 cells; test: RSV adsorption analyses (RT-qPCR); type: cell-based, Human respiratory syncytial virus; details: RSV 5 MOI, 1 h at 4 °C
Protocol: (§1) Figure 2. Investigation on the underlying mechanism 4–49 C and 1-HB-63 inhibiting wtRSV replication. (A) Time-of-addition analyses of 4-49C and 1-HB-63 replication. The HEp-2 cells were infected with wtRSV at a multiplication of infection (MOI) of 5 for 2 h (37 °C, 5% CO2). The cells were washed with PBS and the media containing drug (4-49C, 1-HB-63, RSV-604, GS-5806 and Ribavirin at 1 mM, 200 μM, 10 μM, 1 mM and 100 μM, respectively.) were added at −1, 0, 2, 4, 6, 8, 10, 12 and 14 h separately and incubated till 24 h post infection. Then, the cells were harvested and lysed for RNA extraction and RT-qPCR assay. The results were a representative of three independent experiments, and shown as means ± standard and expressed as % negative control, although in many cases the bars for the standard deviation were obscured by the symbols given the small margin of values. (B) RSV adsorption analyses. After HEp-2 cells seeded into 24 well plates for 24 h, the cold media containing RSV (5 MOI) and compounds of 4–49C, 1-HB-63 and P13 at 1 mM, 200 μM and 100 μM, respectively, was added and incubated for 1 h at 4 °C. Then, the total RNA was isolated and RT-qPCR was performed. (C) RSV minigenome assay. After 24 h, we cotransfected RSV minigenome plasmid of pBR322B-RSV-Gluc with four auxiliary plasmids into BHK/T7 cells and detected the expression of Gluc in the supernatant. […]

[2] = test system: RSV minigenome (pBR322B-RSV-Gluc) in BHK-T7 cells; test: RSV minigenome assay (Gluc expression); type: cell-based, Human respiratory syncytial virus; details: BHK-T7, 24 h, vs DMSO
Protocol: BHK-T7 cells were seeded into 24 well plates at a density of 2 × 10^4 cells/well and incubated for 24 h. Then the RSV minigenome plasmid encoding […] (pBR322B-RSV-Gluc) was mixed with the helper plasmids (pCITE-N, pCITE-P, pCITE-L and pCITE-M2-1) in an Eppendorf tube containing 250 μL Opti-MEM. Meanwhile, the transfection reagent of Lipofectamine 2000 (Invitrogen, CA, USA) was diluted in another tube containing 250 μL Opti-MEM and incubated 5 min at room temperature. Then, the plasmids were mixed with the transfection reagent and incubated at room temperature for 30 min. After that, the BHK-T7 culture media were replaced with the DNA-lipo-optiMEM mixture and incubated for 4 ∼ 6 h (37 °C, 5% CO2). Then the DNA-lipo-optiMEM mixture was replaced with media containing the compounds (4–49 C at 1 mM and 1-HB-63 at 200 μM) and further incubated for 24 h (37 °C, 5% CO2). Finally, after the supernatant of the BHK-T7 cells was transferred into 96 well plate, the Gluc activity was determined by using LUMI star (BMG ABTECH, Ortenberg, Germany) following the manufacturer’s instructions after adding the chromogenic substrate of Gaussia Luciferase Flex Assay Kit (NEB, Ipswich, USA). The results were recorded by photography and/or evaluated with OPTIMA software (BMG LABTECH). The resultant signal strength was quantified as relative light unit (RLU).
as §1

RSV-Luc [3] = test: In vivo mouse imaging, intraperitoneal injection; set-up: species or system BALB/c mice; details: i.p. 10, 30, 90 mg/kg once a day, days 1-5; except 4–49 C 10 and 90 mg/kg groups on the second day
Protocol: (§2) Female BALB/c mice of 6-8 weeks were purchased from Charles River Laboratories, Beijing, China and randomly divided into different groups with six mice in each group. All animal experiments were performed in compliance with protocols approved by the Institutional Animal Care and Use Committees of Tsinghua University (No. 17-DZJ1). The compounds (DMSO and ribavirin of 90 mg/kg was used as negative and positive control, respectively) with three different dose groups of 10, 30 and 90 mg/kg were administered to mice by intraperitoneal (i.p.) injection or oral route (anaesthesia with 2% halothane) at zero day and 1 h prior to the mice infected with 50 μL RSV-Luc (1 × 10^6 PFU), and then once a day for 5 consecutive days post RSV-Luc infection. For the in vivo mouse imaging, 50 μL PBS containing D-Luciferin Potassium Salt (75 mg/kg) was administered to BALB/c mice via nasal drip at days 1, 2, 3, 4 and 5 since RSV-Luc infection, and 5 min later, the whole-body images of BALB/c mice were acquired using an IVIS Lumina II in vivo imaging system (PE, Waltham, MA, USA). And the signal intensity was quantified as the total flux (photons/seconds) using Living Image software (PE).
Female BALB/c mice of 6–8 weeks were randomly divided into different groups with 6 mice in each group. […]

RSV-Luc [4] = test: Determination of RSV titre from lung tissues (RT-qPCR); type: in vivo, BALB/c mice; details: i.p. 10, 30, 90 mg/kg, day 5 post-infection
Protocol: Following the experiment of the in vivo mouse imaging mentioned above, the mice were sacrificed. The lung tissues were collected, weighed, quickly frozen under liquid nitrogen and ground with a tissue homogeniser. Then the total RNA was extracted by Trizol from 100 µL homogenates. The viral RNA sample (1 µL) was mixed with the SYBR Green supermix (10 µL), plasmid pMD-18T-N (1 µL, copy number from 1 × 10^7 copies/μL to 1 × 10^5 copies/μL), the upstream and downstream primers, respectively (10 µM, 1 µL) and water (1 µL). Reactions were performed in SLAN-96P Real-Time PCR System (Shanghai Hongshi Medical Technology) as follows: 42 °C for 60 min (for reverse transcription), 95 °C for 1.5 min, 95 °C for 15 s and 60 °C for 1 min, for 40 cycles. The reaction data were analysed by determining the threshold cycle (Ct).
Female BALB/c mice of 6–8 weeks were randomly divided into different groups with 6 mice in each group. All animal experiments were performed in compliance with protocols approved by the Institutional Animal Care and Use Committees of Tsinghua University (No. 17-DZJ1). At day 0, three different doses of 4–49 C and 1-HB-63 (10 mg/kg, 30 mg/kg, 90 mg/kg) were administered to mice by intraperitoneal (i.p.) injection, respectively, with DMSO and ribavirin of 90 mg/kg separately used as negative and positive control. […]

RSV-Luc [5] = test: In vivo mouse imaging, oral route (intragastric); set-up: species or system BALB/c mice; details: intragastric 30 and 90 mg/kg, gavage twice a day
Protocol: as §2, with “and then once a day for 5 consecutive days post RSV-Luc infection.” left out
In order to further make clear whether the anti-RSV activity of 4–49 C and 1-HB-63 is dependent on the administration route or not, these two compounds were given intragastrically (Figure 5(A)). […]

[6] = Pharmacokinetic study in rat; type: in vivo, Sprague − Dawley (SD) rats; details: SD rat
Protocol: Six male Sprague − Dawley (SD) rats, randomly divided into two groups of 3 each, were treated with 4–49 C predissolved in 5% DMSO, 5% Solutol and 90% Saline by intravenous injection (iv, 5 mg/kg) and in 5% DMSO and 95% (0.5%MC) by intragastric administration (ig, 10 mg/kg), respectively. Blood samples (100 μL) were collected into K2-EDTA tubes by retro‐orbital bleeding under anaesthesia using isoflurane at 0.033, 0.083, 0.25, 0.5, 1, 2, 4, 7 and 24 h after dosing. And then plasma samples were obtained by centrifuging at 5000 rpm for 10 min at 4 °C and stored at −80 °C until analysis using HPLC–MS/MS.
To investigate the pharmacokinetic parameters in vivo, 4–49 C was selected for the pharmacokinetic experiments in SD rat model. The SD rats were divided into two groups (n = 3) and treated by iv at 5 mg/kg dose and by ig at 10 mg/kg dose, respectively. Plasma samples were collected up to 24 h postdosing and the concentration of 4–49 C was measured by using HPLC-MS/MS.

[7] = positive controls, concentration not given
[8] = male, Sprague-Dawley, iv, 5 mg/kg, plasma, n = 3, Mean ± SD

SMILES: O=C(C[S+]([O-])c1c[nH]c2ccccc12)Nc1ccccc1Br (stereo not shown) [1-HB-63]
- time points of addition at which virus replication is inhibited (wtRSV in HEp-2 cells; compound at 200 μM): significantly inhibited virus replication when added at the time points of −1, 0, 2 and 4 h
- inhibition of RSV replication by preventing virus adsorption ([1]; 1-HB-63 at 200 μM): neither of 4-49 C and 1-HB-63 inhibited RSV replication by preventing virus adsorption
- inhibition of expression of Gluc gene ([2]; 1-HB-63 at 200 μM): sharply contrast
- fluorescence signals (RSV-Luc replication in lungs) compared with DMSO-treated group (RSV-Luc [3]): did not display significant differences
- virus titres in lung tissues compared with DMSO (RSV-Luc [4]): no significant differences
- fluorescence signals (RSV-Luc replication) compared with DMSO negative control group (RSV-Luc [5]): did not exhibit significant differences

SMILES: Cc1cn2nc([C@@H]3CCCCN3C(=O)c3cc(Cl)ccc3NS(C)(=O)=O)cc2nc1N1CC[C@H](N)C1 [GS-5806, reference compound]
- time points of addition at which virus replication is inhibited (wtRSV in HEp-2 cells; compound at 1 mM): inhibition activity only when added up to 0 and 2 h
- inhibition of expression of Gluc gene [2, 7]: could not be inhibited

SMILES: CCOc1ccccc1NC(=O)CSc1c[nH]c2ccc(OC)cc12 [4–49 C]
- time points of addition at which virus replication is inhibited (wtRSV in HEp-2 cells; compound at 1 mM): significantly inhibited virus replication when added at the time points of −1, 0 and 2 h
- inhibition of RSV replication by preventing virus adsorption ([1]; 4-49C at 1 mM): neither of 4-49 C and 1-HB-63 inhibited RSV replication by preventing virus adsorption
- inhibition of expression of Gluc gene ([2]; 4–49 C at 1 mM): could not be inhibited
- fluorescence signals (RSV-Luc replication in lungs) compared with DMSO-treated group (RSV-Luc [3]): did not display significant differences
- virus titres in lung tissues compared with DMSO (RSV-Luc [4]): no significant differences
- fluorescence signals (RSV-Luc replication) compared with DMSO negative control group (RSV-Luc [5]): did not exhibit significant differences
- concentration in plasma samples after ig administration ([6]; ig, 10 mg/kg, up to 24 h, HPLC-MS/MS (data not shown)): no 4–49 C detected in plasma samples
- MRTIV ([6]; iv, 5 mg/kg, plasma, n = 3, Mean ± SD): 7.86 ± 0 min
- AUC(0-inf) [6, 8]: 70 ± 17 ng·h/mL
- AUC(0-t) [6, 8]: 69.3 ± 17 ng·h/mL
- Cmax [6, 8]: 454 ± 111 ng/mL
- half-life [6, 8]: 10 ± 18 min
- k el [6, 8]: 0.00119 s⁻¹

SMILES: NC(=O)c1ncn([C@@H]2O[C@H](CO)[C@@H](O)[C@H]2O)n1 [ribavirin, Ribavirin, reference compound]
- inhibition of expression of Gluc gene [2, 7]: sharply contrast
